The values below come from ChEMBL document CHEMBL5579833, “The U.S. FDA approved cardiovascular drugs from 2011 to 2023: A medicinal chemistry perspective” (Eur J Med Chem, 2024).

Where a name gives a salt, the structure may show the parent alone.

The nature of data set [1]: Activation of Myosin S1 ATPase activity in bovine Cardio-myofibril.
A further data set is filed under the species Rattus norvegicus. The data set is described as follows: Antithrombotic activity in fibrin-rich platelet-poor rat thrombin.
The nature of data set [2]: Plasma protein binding in cynomolgus monkey.
The nature of data set [3]: Elimination half life in cynomologus monkey. The settings on record: cynomolgus monkey, in vivo.
Another data set concerns the target P2Y purinoceptor 12 (Homo sapiens, UniProt Q9H244). In words: Binding affinity to human P2Y12 assessed as inhibition constant.
Data set [4] can be described thus: Inhibition of ApoB lipoprotein secretion in human HepG2 cells. The settings on record: read-out: ED50 (the source's name). It counts as functional.
Data set [5] concerns the target T1, Type-2 angiotensin II receptor (Homo sapiens, UniProt P50052).
T1 sequence (P50052 whole entry): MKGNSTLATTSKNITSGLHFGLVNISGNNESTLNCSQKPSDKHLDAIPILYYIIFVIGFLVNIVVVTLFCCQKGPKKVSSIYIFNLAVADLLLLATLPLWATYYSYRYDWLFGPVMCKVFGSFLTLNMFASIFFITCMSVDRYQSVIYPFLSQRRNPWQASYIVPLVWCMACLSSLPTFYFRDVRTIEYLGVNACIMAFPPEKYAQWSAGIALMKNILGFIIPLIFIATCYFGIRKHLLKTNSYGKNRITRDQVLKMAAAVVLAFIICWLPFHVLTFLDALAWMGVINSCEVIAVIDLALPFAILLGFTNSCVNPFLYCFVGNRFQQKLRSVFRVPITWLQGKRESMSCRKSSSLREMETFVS
The data set is described as follows: Inhibition of Angiotensin-2 receptor (unknown origin).

A further data set deals with Platelet. The data set is described as follows: Inhibition of thrombin-induced human platelet aggregation.

Sequence of P2Y purinoceptor 12 (Q9H244 whole entry): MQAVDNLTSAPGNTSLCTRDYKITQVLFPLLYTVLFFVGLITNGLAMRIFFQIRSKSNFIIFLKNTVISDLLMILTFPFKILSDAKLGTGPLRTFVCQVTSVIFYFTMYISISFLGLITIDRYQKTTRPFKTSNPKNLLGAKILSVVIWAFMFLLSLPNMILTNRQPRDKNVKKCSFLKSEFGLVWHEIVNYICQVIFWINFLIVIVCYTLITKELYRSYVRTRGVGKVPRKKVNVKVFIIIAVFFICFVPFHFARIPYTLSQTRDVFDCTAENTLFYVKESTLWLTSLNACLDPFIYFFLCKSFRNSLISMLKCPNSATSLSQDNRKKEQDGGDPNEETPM

Usually IC50 stands for the midpoint of a concentration-inhibition curve. In the case of `CC(C)n1c(=O)cc(N[C@@H](C)c2ccccc2)[nH]c1=O`, in data set [1], the IC50 was found to be 300 nM.

A word on the ED50: it is the midpoint of the dose-response relation. In the data set listed under Rattus norvegicus, `O=C(NC[C@H]1CN(c2ccc(N3CCOCC3=O)cc2)C(=O)O1)c1ccc(Cl)s1` [RIVAROXABAN] gave an ED50 of 0.1 mg/kg.

The term fraction unbound denotes free concentration divided by total concentration. What is called half-life is the time needed for the level to fall by half in the phase considered. In the case of `CCCCC(=O)N(Cc1ccc(-c2ccccc2-c2nnn[nH]2)cc1)[C@H](C(=O)O)C(C)C.CCOC(=O)[C@H](C)C[C@@H](Cc1ccc(-c2ccccc2)cc1)NC(=O)CCC(=O)O`, the fraction unbound in data set [2] is 0.06. This compound had a half-life in data set [3] of 4.6 h.

The Ki is the equilibrium dissociation constant of an inhibitor or competing ligand from its target. For the compound `CCCSc1nc(N[C@@H]2C[C@H]2c2ccc(F)c(F)c2)c2nnn([C@@H]3C[C@H](OCCO)[C@@H](O)[C@H]3O)c2n1` [TICAGRELOR], the Ki on P2Y purinoceptor 12 worked out at 4.3 nM.

Regarding `O=C(NC1CCN(CCCCC2(C(=O)NCC(F)(F)F)c3ccccc3-c3ccccc32)CC1)c1ccccc1-c1ccc(C(F)(F)F)cc1` [LOMITAPIDE MESYLATE], the EC50 in data set [4] was found to be 0.8 nM.

Compound `CCOc1nc2cccc(C(=O)OCc3oc(=O)oc3C)c2n1Cc1ccc(-c2ccccc2-c2noc(=O)[nH]2)cc1` [AZILSARTAN MEDOXOMIL] gave an IC50 in data set [5] of 2.6 nM.

`CCOC(=O)N[C@@H]1CC[C@@H]2[C@@H](C1)C[C@H]1C(=O)O[C@H](C)[C@H]1[C@H]2/C=C/c1ccc(-c2cccc(F)c2)cn1` [VORAPAXAR] gave an IC50 in the data set on Platelet of 47 nM.
